From ChEMBL document CHEMBL1201862, “PubChem BioAssay data set” (2004)
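Assay format: 96-well plates, 48-hour exposure. Abbreviation: GI50, concentration required for 50% inhibition of growth.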 Activity calls are given as the source filed them. Rule as the data show it: active = GI50 up to about 1.1 µM and inactive = higher.

Assays:
Assay in all cases: NCI anticancer screen, dose series, 48 h
786-0 = system: 786-0
A498 = system: A498
A549 = system: A549
ACHN = system: ACHN
CAKI-1 = system: CAKI-1
CCRF-CEM = system: CCRF-CEM
COLO 205 = system: COLO 205
DLD-1 = system: DLD-1
DMS-114 = system: DMS-114
DMS-273 = system: DMS-273
EKVX = system: EKVX
HCT-116 = system: HCT-116
HCT-15 = system: HCT-15
HL-60 = system: HL-60
HOP-62 = system: HOP-62
HOP-92 = system: HOP-92
HT-29 = system: HT-29
IGROV-1 = system: IGROV-1
K562 = system: K562
KM-20L2 = system: KM-20L2
LOX IMVI = system: LOX IMVI
LXFL 529 = system: LXFL 529
M14 = system: M14
M19-MEL = system: M19-MEL
MOLT-4 = system: MOLT-4
Malme-3M = system: Malme-3M
NCI-H226 = system: NCI-H226
NCI-H23 = system: NCI-H23
NCI-H460 = system: NCI-H460
NCI-H522 = system: NCI-H522
OVCAR-3 = system: OVCAR-3
OVCAR-4 = system: OVCAR-4
OVCAR-5 = system: OVCAR-5
OVCAR-8 = system: OVCAR-8
RXF 393 = system: RXF 393
SF-268 = system: SF-268
SF-295 = system: SF-295
SF-539 = system: SF-539
SK-MEL-28 = system: SK-MEL-28
SK-MEL-2 = system: SK-MEL-2
SK-MEL-5 = system: SK-MEL-5
SK-OV-3 = system: SK-OV-3
SN12C = system: SN12C
SNB-19 = system: SNB-19
SNB-75 = system: SNB-75
SNB-78 = system: SNB-78
SW-620 = system: SW-620
TK-10 = system: TK-10
U-251 = system: U-251
UACC-257 = system: UACC-257
UACC-62 = system: UACC-62
UO-31 = system: UO-31
XF498 = system: XF498
HCC 2998 = system: HCC 2998
HOP-18 = system: HOP-18
KM12 = system: KM12
RPMI-8226 = system: RPMI-8226
SR = system: SR

## N#C/C(=C1\SCC(=O)N1c1ccccc1)c1nc2ccccc2[nH]1
786-0
  GI50: > 100 µM (inactive)
A498
  GI50: > 100 µM (inactive)
A549
  GI50: > 100 µM (inactive)
ACHN
  GI50: > 100 µM (inactive)
CAKI-1
  GI50: > 100 µM (inactive)
CCRF-CEM
  GI50: > 100 µM (inactive)
COLO 205
  GI50: > 100 µM (inactive)
DLD-1
  GI50: > 100 µM (inactive)
DMS-114
  GI50: > 100 µM (inactive)
DMS-273
  GI50: > 100 µM (inactive)
EKVX
  GI50: > 100 µM (inactive)
HCT-116
  GI50: > 100 µM (inactive)
HCT-15
  GI50: > 100 µM
HL-60
  GI50: > 100 µM (inactive)
HOP-62
  GI50: > 100 µM (inactive)
HOP-92
  GI50: > 100 µM (inactive)
HT-29
  GI50: > 100 µM (inactive)
IGROV-1
  GI50: > 100 µM (inactive)
K562
  GI50: > 100 µM (inactive)
KM-20L2
  GI50: > 100 µM (inactive)
LOX IMVI
  GI50: > 100 µM (inactive)
LXFL 529
  GI50: > 100 µM (inactive)
M14
  GI50: > 100 µM (inactive)
M19-MEL
  GI50: > 100 µM (inactive)
MOLT-4
  GI50: > 100 µM (inactive)
Malme-3M
  GI50: > 100 µM (inactive)
NCI-H226
  GI50: > 100 µM (inactive)
NCI-H23
  GI50: > 100 µM (inactive)
NCI-H460
  GI50: > 100 µM (inactive)
NCI-H522
  GI50: > 100 µM (inactive)
OVCAR-3
  GI50: > 100 µM (inactive)
OVCAR-4
  GI50: > 100 µM (inactive)
OVCAR-5
  GI50: > 100 µM (inactive)
OVCAR-8
  GI50: > 100 µM (inactive)
RXF 393
  GI50: > 100 µM (inactive)
SF-268
  GI50: > 100 µM (inactive)
SF-295
  GI50: > 100 µM (inactive)
SF-539
  GI50: > 100 µM (inactive)
SK-MEL-28
  GI50: > 100 µM (inactive)
SK-MEL-2
  GI50: > 100 µM (inactive)
SK-MEL-5
  GI50: > 100 µM (inactive)
SK-OV-3
  GI50: > 100 µM (inactive)
SN12C
  GI50: > 100 µM (inactive)
SNB-19
  GI50: > 100 µM (inactive)
SNB-75
  GI50: > 100 µM (inactive)
SNB-78
  GI50: > 100 µM (inactive)
SW-620
  GI50: > 100 µM (inactive)
TK-10
  GI50: > 100 µM (inactive)
U-251
  GI50: > 100 µM (inactive)
UACC-257
  GI50: > 100 µM (inactive)
UACC-62
  GI50: > 100 µM (inactive)
UO-31
  GI50: > 100 µM (inactive)
XF498
  GI50: > 100 µM (inactive)

## CC(=O)OC(C[C@H](C)[C@@H]1CC[C@]2(C)C3=CCC4C(C)(C)C(=O)CC[C@]4(C)C3CCC12C)C1OC1(C)C (stereo not given in full)
786-0
  GI50: 19.7 µM (inactive)
A498
  GI50: 17.1 µM (inactive)
A549
  GI50: 21.2 µM (inactive)
ACHN
  GI50: 11.5 µM (inactive)
CCRF-CEM
  GI50: 15.9 µM (inactive)
COLO 205
  GI50: 19.9 µM (inactive)
DLD-1
  GI50: 29.7 µM (inactive)
DMS-114
  GI50: 32.5 µM (inactive)
DMS-273
  GI50: 17.1 µM (inactive)
EKVX
  GI50: 32.7 µM (inactive)
HCC 2998
  GI50: 16.4 µM (inactive)
HCT-116
  GI50: 18.2 µM (inactive)
HCT-15
  GI50: 33 µM
HL-60
  GI50: 7.29 µM (inactive)
HOP-18
  GI50: > 100 µM (inactive)
HOP-62
  GI50: 20.4 µM (inactive)
HOP-92
  GI50: 11.9 µM (inactive)
HT-29
  GI50: 15.7 µM (inactive)
IGROV-1
  GI50: 21.9 µM (inactive)
K562
  GI50: 7.24 µM (inactive)
KM-20L2
  GI50: 25.5 µM (inactive)
KM12
  GI50: 20 µM (inactive)
LOX IMVI
  GI50: 27.9 µM (inactive)
LXFL 529
  GI50: 22.4 µM (inactive)
M14
  GI50: 20.1 µM (inactive)
M19-MEL
  GI50: 31.2 µM (inactive)
MOLT-4
  GI50: 24.5 µM (inactive)
Malme-3M
  GI50: 25.1 µM (inactive)
NCI-H226
  GI50: 13.6 µM (inactive)
NCI-H23
  GI50: 20.5 µM (inactive)
NCI-H522
  GI50: 12.9 µM (inactive)
OVCAR-3
  GI50: 88.9 µM (inactive)
OVCAR-4
  GI50: 28 µM (inactive)
OVCAR-5
  GI50: 16.7 µM (inactive)
OVCAR-8
  GI50: 28.8 µM (inactive)
RPMI-8226
  GI50: 16.7 µM (inactive)
RXF 393
  GI50: 15.1 µM (inactive)
SF-268
  GI50: 21.6 µM (inactive)
SF-295
  GI50: 22.7 µM (inactive)
SF-539
  GI50: 41.4 µM (inactive)
SK-MEL-28
  GI50: 27.3 µM (inactive)
SK-MEL-2
  GI50: 45.1 µM (inactive)
SK-OV-3
  GI50: 13 µM (inactive)
SNB-19
  GI50: 39.6 µM (inactive)
SR
  GI50: > 10 µM (inactive)
SW-620
  GI50: 34.1 µM (inactive)
TK-10
  GI50: 19.1 µM (inactive)
U-251
  GI50: 21.9 µM (inactive)
UACC-257
  GI50: 20.3 µM (inactive)
UACC-62
  GI50: 23.4 µM (inactive)
UO-31
  GI50: 13.2 µM (inactive)
XF498
  GI50: 18.5 µM (inactive)
